Laboratory results as given in patent US20210263120A1, “METHOD OF PERSONALIZED TREATMENT FOR CARDIOMYOPATHY AND HEART FAILURE AND ASSOCIATED DISEASES BY MEASURING EDEMA AND CACHEXIA/SARCOPENIA” (priority 2018, published 2021).

Assays:
[1] = biological target: T1, mouse renin (Mus musculus, UniProt P06281); test: Plasma renin activity assay (FRET) in plasma of treated DCM mice; type: in vivo; conditions: DCM mice at 90 days, vs. untreated DCM control
T1 construct: Renin enzymatic activity from EDTA-aprotinin supplemented mouse plasma samples; from tissue
T1 sequence (P06281 72-402): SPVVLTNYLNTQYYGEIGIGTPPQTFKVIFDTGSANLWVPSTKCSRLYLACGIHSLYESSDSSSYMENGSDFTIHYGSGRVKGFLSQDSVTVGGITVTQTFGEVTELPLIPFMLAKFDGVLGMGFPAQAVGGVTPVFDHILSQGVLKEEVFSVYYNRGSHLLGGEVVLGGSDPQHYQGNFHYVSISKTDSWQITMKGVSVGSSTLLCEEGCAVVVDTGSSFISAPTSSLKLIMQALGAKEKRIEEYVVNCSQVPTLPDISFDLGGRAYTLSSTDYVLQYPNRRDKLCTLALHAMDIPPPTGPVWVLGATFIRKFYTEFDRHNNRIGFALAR
Experimental: Plasma samples were aliquoted and stored at −80° C. until analysis.

[2] = tested on: plasma aldosterone; test: Enzyme immunoassay of plasma aldosterone in treated DCM mice; type: in vivo, mouse; conditions: DCM mice at 90 days, vs. untreated DCM control
Source text: (§1) Mice: Dilated cardiomyopathy (DCM) is a major cause of HF, which is associated with pathological dilation of the heart ventricles and declines in heart contractile or systolic function. A well-established, translational mouse model of DCM with reduced ejection fraction (rEF) fulfills the criteria of the American Heart Association Scientific Statement for Animal Models of Heart Failure was utilized in the examples below. The mice used for this study were randomly assigned female littermates with or without (DCM on a C57BL/6 background. DCM mice express a transgene dominant-negative CREB transcription factor specific to cardiomyocytes and consistently develop the progressive stages (A-D) of HF similar to those described for humans. In female mice with DCM renal function remains within a normal range up to the terminal HF stage, as measured by plasma BUN and creatinine. DCM+vehicle (n=28) and DCM+DRI (n=29) were compared to each other. A group of congenic WT mice (n=20) was used for reference. In sub-groups of 90-day old mice (n=8/group), terminal blood was collected via cardiocentesis with ethylenediaminetetraacetic acid (EDTA)-aprotinin syringes to prevent proteolysis of targeted proteins and dissected organs were weighed. […] All analysis and health/death reports were recorded by investigators and animal facility technicians who were blinded to the mouse genotype. […]

[3] = tested on: female mice with dilated cardiomyopathy (DCM); test: Kaplan-Meier survival of female mice with DCM; type: in vivo, mouse
Source text: (§2) Mice: Dilated cardiomyopathy (DCM) is a major cause of HF, which is associated with pathological dilation of the heart ventricles and declines in heart contractile or systolic function. A well-established, translational mouse model of DCM with reduced ejection fraction (rEF) fulfills the criteria of the American Heart Association Scientific Statement for Animal Models of Heart Failure was utilized in the examples below. The mice used for this study were randomly assigned female littermates with or without (DCM on a C57BL/6 background. DCM mice express a transgene dominant-negative CREB transcription factor specific to cardiomyocytes and consistently develop the progressive stages (A-D) of HF similar to those described for humans. In female mice with DCM renal function remains within a normal range up to the terminal HF stage, as measured by plasma BUN and creatinine. DCM+vehicle (n=28) and DCM+DRI (n=29) were compared to each other. A group of congenic WT mice (n=20) was used for reference. In sub-groups of 90-day old mice (n=8/group), terminal blood was collected via cardiocentesis with ethylenediaminetetraacetic acid (EDTA)-aprotinin syringes to prevent proteolysis of targeted proteins and dissected organs were weighed. The blood samples were centrifuged at 3000 rpm for 20 min at 4° C. Plasma samples were aliquoted and stored at −80° C. until analysis. All analysis and health/death reports were recorded by investigators and animal facility technicians who were blinded to the mouse genotype.
(§3) Aliskiren water was provided ad libitum throughout life.
Statistical Analysis: Statistical analyses were performed with GraphPad Prism 7.04 software (GraphPad Software, La Jolla, Calif., USA) using Student's t-test, one-way ANOVA, or two-way ANOVA with Tukey's multiple comparisons test (unless otherwise indicated) and Pearson's correlation. Survival was analyzed using Kaplan-Meier curves with the Mantel-Cox test. Differences were considered significant if p≤0.05. Data are represented as mean±SE.

[4] = tested on: female mice with dilated cardiomyopathy (DCM); test: Echocardiography at 90 days in DCM mice; type: in vivo, mouse; conditions: 90 days of age
[5] = tested on: female mice with dilated cardiomyopathy (DCM); test: Morphometric changes (heart and lung weight to body weight) at 90 days; type: in vivo, mouse; conditions: 90 days of age
Source text: as §1

[6] = tested on: female mice with dilated cardiomyopathy (DCM); test: Body composition by quantitative magnetic resonance (QMR, EchoMRI); type: in vivo, mouse
Source text: as §2, §3
Body Composition: Body composition was objectively quantified by a single-blinded and experienced operator. Bodyweight, free water (systemic extracellular water, ECW), total water, body fat, and lean mass were recorded longitudinally. Mice were measured every tenth day between 50-100 days using quantitative magnetic resonance (QMR) technology with an EchoMRI™ 4-in-1 Analyzer (Echo Medical Systems, Houston, Tex., USA). The machine was calibrated daily per standard operating procedure using the provided canola oil (54.3 g) phantom. Briefly, mice were weighed (Scout Pro SP401, Ohaus Corporation, Pine Brook, N.J., USA) and loaded into a tube restrainer specific to the system. Mice were fully conscious and minimally restrained throughout each 60-90 s recording and were returned to their home enclosure following measurement.

[7] = 100 mg/kg/day orally via drinking water, throughout the treatment period
Experimental: Dose calculations were based on an average consumption of 5 mL of water/day/mouse. […] The oral dose was chosen to closely mimic the human route of delivery, while not altering the blood pressure, associated with elevated plasma Ang II-aldosterone levels, given the low bioavailability of the drug in rodents. […] The administration was started at 50 days of age to coincide with the previously identified timeline of increased renin activity and development of stage B HF in female DCM mice]. […] All untreated mice (WT and DCM+vehicle) received ad lib 3 ppm hyperchlorinated facility water via an automated watering system (Edstrom, Waterford, Wis., USA).

[8] = humans; cited from earlier work

COCCCOc1cc(C[C@@H](C[C@H](N)[C@@H](O)C[C@H](C(=O)NCC(C)(C)C(N)=O)C(C)C)C(C)C)ccc1OC [aliskiren, aliskiren hemifumarate]
plasma renin activity [1]: significantly reduced elevated plasma renin activity to normal levels
plasma aldosterone levels [2]: not modulated by treatment
survival gain expressed as human years ([3]; assuming an 80-year lifespan): 5.6 human years
median survival ([3]; female DCM mice, 100 mg/kg/day from 50 days of age, control 103 days): 110 days
increase in survival vs. control DCM mice ([3]; female DCM mice, median survival +DRI vs. control): 7%
absolute increase in EF vs. DCM+vehicle [4]: 5%
heart rate ([4]; anesthetized, control 419±10): 469±14 bpm
cardiac output (CO; mL/min) ([4]; vs. DCM control): improved
ejection fraction (EF %) ([4]; vs. DCM control): improved
fractional shortening (FS %) ([4]; vs. DCM control): improved
reduction of the gross increase in cardiac weight of control (DCM+vehicle) mice [5]: 20.4%
systemic extracellular water (ECW) ([6]; 100 days of age, QMR): significantly higher in DCM+vehicle vs. DCM+DRI mice
combined fat and lean mass (wasting/cachexia) ([6]; 100 days, QMR): combined losses of fat and lean mass in DCM control mice by 100 days relative to WT (p<0.0001) and DCM+DRI mice
lean body mass ([6]; 100 days, QMR): significant decline in lean body mass in DCM control mice at 100 days, consistent with sarcopenia, by comparison to DCM+DRI and WT mice
development of Stage C HF / ECW accumulation (edema) ([6]; DCM+DRI vs. DCM+vehicle): delayed development of Stage C HF
body weights ([6]; at 90 days): not significantly different between groups
body weights ([6]; at 100 days): weights appeared to decline in DCM+vehicle controls compared to WT and DCM+DRI mice
body fat ([6]; through 100 days, QMR): maintenance of fat levels similar to WT through 100 days
side effects or abnormal clinical observations [7]: no side effects or abnormal clinical observations
bioavailability [8]: low
